# Test results: patent US20250230193A1, “CYCLIC COMPOUND HAVING SELECTIVE KRAS INHIBITORY EFFECT ON HRAS AND NRAS” (CHUGAI SEIYAKU KABUSHIKI KAISHA, priority 2022, published 2025)
# Where a SMILES comes first, the peptide text is derived from it. Bridges are numbered along the chain shown (N, C = ends). [ ]: non-standard residue; d: D form. The star is where a group is joined. hPhe(3-Cl-4-CF3) = N[C@@H](CCc1ccc(C(F)(F)F)c(Cl)c1)C(=O)O; NPrPhe(4-CF3) = CCCN[C@@H](Cc1ccc(C(F)(F)F)cc1)C(=O)O; NMeGly(cPent) = CN[C@H](C(=O)O)C1CCCC1; Hyp = O=C(O)[C@@H]1C[C@@H](O)CN1; NMeD = CN[C@@H](CC(=O)O)C(=O)O; NMeL = CN[C@@H](CC(C)C)C(=O)O; Morpholide = C1CN(*)CCO1; Ac5c = NC1(C(=O)O)CCCC1; Aze = O=C(O)[C@@H]1CCN1; NEtG = CCNCC(=O)O; Sar = CNCC(=O)O
# What was measured:
# [1] = target: GDP-bound NRAS wild-type protein (Homo sapiens, UniProt P01111); test: Binding to NRAS by surface plasmon resonance (SPR), Single Cycle Kinetics
# [2] = target: GDP-bound HRAS wild-type protein (Homo sapiens, UniProt P01112); test: Binding to HRAS by surface plasmon resonance (SPR), Single Cycle Kinetics
# [3] = SPR, GDP-bound wild-type proteins
# [4] = KD ratio, GDP-bound NRAS wild-type vs GDP-bound KRAS wild-type, SPR
# [5] = KD ratio, GDP-bound HRAS wild-type vs GDP-bound KRAS wild-type, SPR
# [6] = SPR, GDP-bound NRAS wild-type vs GDP-bound KRAS wild-type
# [7] = SPR, GDP-bound HRAS wild-type vs GDP-bound KRAS wild-type
# GDP-bound HRAS wild-type protein, sequence (P01112 whole entry): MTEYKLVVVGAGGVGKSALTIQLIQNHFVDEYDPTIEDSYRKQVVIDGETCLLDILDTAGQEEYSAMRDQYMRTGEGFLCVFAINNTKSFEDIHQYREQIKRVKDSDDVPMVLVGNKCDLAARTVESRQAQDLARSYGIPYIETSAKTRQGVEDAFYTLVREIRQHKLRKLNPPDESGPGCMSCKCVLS
# GDP-bound NRAS wild-type protein, sequence (P01111 whole entry): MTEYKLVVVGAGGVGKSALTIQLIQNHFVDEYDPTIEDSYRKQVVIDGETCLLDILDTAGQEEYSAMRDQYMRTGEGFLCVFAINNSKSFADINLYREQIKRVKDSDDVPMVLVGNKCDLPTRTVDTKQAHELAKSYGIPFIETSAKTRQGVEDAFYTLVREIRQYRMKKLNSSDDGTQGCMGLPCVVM
compound,measurement,setting,value
CCC[C@H]1C(=O)N[C@@H](CC(C)C)C(=O)N(CC)CC(=O)N(C)[C@H]2C/C=C\CCN(C2=O)[C@@H](Cc2ccc(C)cc2)C(=O)N(C)CC(=O)N[C@@H](CCc2cc(F)c(C(F)(F)F)c(F)c2)C(=O)N2C[C@H](OCC)C[C@H]2C(=O)NC2(CCC2)C(=O)N(C)[C@@H](C2CCCC2)C(=O)N(C)[C@H](C(=O)N(C)C)CC(=O)N1C [PP2539],NRAS/KRAS (ratio of KD value with respect to GDP-bound NRAS wild-type protein to KD value with respect to KRAS),[1]; class symbols,A (a compound having 10 or more and less than 20 is denoted as A)
same,HRAS/KRAS (ratio of KD value with respect to GDP-bound HRAS wild-type protein to KD value with respect to KRAS),[2]; class symbols,B (a compound having 3 or more and less than 10 is denoted as B)
CCC[C@H]1C(=O)N[C@@H]([C@@H](C)CC)C(=O)N(C)CC(=O)N(C)[C@H]2C/C=C\CCN(C2=O)[C@@H](Cc2ccc(C(F)(F)F)cc2)C(=O)N(C)CC(=O)N[C@@H](CCc2ccc(C(F)(F)F)c(Cl)c2)C(=O)N2CC3(CC3)C[C@H]2C(=O)NC2(CC(C)(C)C2)C(=O)N(C)[C@@H](CC(C)(C)C)C(=O)N(C)[C@H](C(=O)N(C)C)CC(=O)N1C [PP2979],NRAS/KRAS (ratio of KD value with respect to GDP-bound NRAS wild-type protein to KD value with respect to KRAS),[1]; [3],A (a compound having 10 or more and less than 20 is denoted as A)
same,HRAS/KRAS (ratio of KD value with respect to GDP-bound HRAS wild-type protein to KD value with respect to KRAS),[2]; [3],B (a compound having 3 or more and less than 10 is denoted as B)
CCO[C@@H]1C[C@H]2C(=O)NC3(CCC3)C(=O)N(C)[C@@H](C3CCCC3)C(=O)N(C)[C@H](C(=O)N(C)C)CC(=O)N(C)[C@@H](CC)C(=O)N[C@@H]([C@@H](C)CC)C(=O)N(C)CC(=O)N(C)[C@H]3CCCCN(C3=O)[C@@H](Cc3ccc(C(F)(F)F)cc3)C(=O)N(C)CC(=O)N[C@@H](CCc3ccc4sccc4c3)C(=O)N2C1 [PP0887],NRAS/KRAS (ratio of KD value with respect to NRAS to KD value with respect to KRAS),[1]; [4],C (A compound having a KD ratio of 0.1 or more and less than 3 is denoted as C)
same,HRAS/KRAS (ratio of KD value with respect to HRAS to KD value with respect to KRAS),[2]; [5],C (A compound having a KD ratio of 0.1 or more and less than 3 is denoted as C)
CCCN1C(=O)[C@@H]2CCN2C(=O)CN(C)C(=O)[C@H]([C@@H](C)CC)NC(=O)[C@H](CC(C)C)N(C)C(=O)C[C@@H](C(=O)N2CCOCC2)N(C)C(=O)[C@H](C2CCCC2)N(C)C(=O)C2(CCCC2)NC(=O)[C@@H]2CCCN2C(=O)[C@H](CCc2ccc(C(F)(F)F)c(Cl)c2)NC(=O)CN(C)C(=O)[C@@H]1Cc1ccc(C(F)(F)F)cc1 [PP0156] ([NMeL]I[Sar][Aze][NPrPhe(4-CF3)][Sar][hPhe(3-Cl-4-CF3)]P[Ac5c][NMeGly(cPent)][NMeD]-Morpholide; lactam N-11),NRAS/KRAS (ratio of KD for GDP-bound NRAS wild-type to KD for KRAS),[1]; SPR,C (A compound having a KD ratio of 0.1 or more and less than 3 is denoted as C)
same,HRAS/KRAS (ratio of KD for GDP-bound HRAS wild-type to KD for KRAS),[2]; SPR,B (a compound having 3 or more and less than 10 is denoted as B)
"CCC[C@H]1C(=O)N[C@@H]([C@@H](C)CC)C(=O)N(C)CC(=O)N(C)[C@H]2C/C=C\CCN(C2=O)[C@@H](Cc2ccc(C(F)(F)F)cc2)C(=O)N(C)CC(=O)N[C@@H](CCc2cc(F)c(C(F)(F)F)c(F)c2)C(=O)N2C[C@H](OCC)C[C@H]2C(=O)N(C)C2(CCC2)C(=O)N(C)[C@@H](C2CCCC2)C(=O)N(C)[C@H](C(=O)N2CCCC2)CC(=O)N1C [PP3120, (2S,8S,12R,14S,20S,23S,27S,30S,36S,38Z)-20-cyclopentyl-8-[2-[3,5-difluoro-4-(trifluoromethyl)phenyl]ethyl]-12-ethoxy-4,16,19,22,26,32,35-heptamethyl-30-[(1S)-1-methylpropyl]-27-propyl-23-(pyrrolidine-1-carbonyl)-2-[[4-(trifluoromethyl)phenyl]methyl]spiro[1,4,7,10,16,19,22,26,29,32,35-undecazatricyclo[34.5.1.0^10,14]dotetracont-38-ene-17,1′-cyclobutane]-3,6,9,15,18,21,25,28,31,34,42-undecone]",NRAS/KRAS (ratio of KD value with respect to GDP-bound NRAS wild-type protein to KD value with respect to KRAS),[1]; [3],AA (a compound having 20 or more is denoted as AA)
same,HRAS/KRAS (ratio of KD value with respect to GDP-bound HRAS wild-type protein to KD value with respect to KRAS),[2]; [3],A (a compound having 10 or more and less than 20 is denoted as A)
CCC[C@H]1C(=O)N[C@@H]([C@@H](C)CC)C(=O)N(C)CC(=O)N(C)[C@H]2C/C=C\CCN(C2=O)[C@@H](CC2CCCCC2)C(=O)N(C)CC(=O)N[C@@H](CCc2ccc(C(F)(F)F)c(OC)c2)C(=O)N2C[C@H](OCC)C[C@H]2C(=O)N(C)C2(CCC2)C(=O)N(C)[C@@H](C2CCCC2)C(=O)N(C)[C@H](C(=O)N(C)C)CC(=O)N1C [PP2336],NRAS/KRAS (ratio of KD value with respect to NRAS to KD value with respect to KRAS),[1]; [6],A (a compound having 10 or more and less than 20 is denoted as A)
same,HRAS/KRAS (ratio of KD value with respect to HRAS to KD value with respect to KRAS),[2]; [7],A (a compound having 10 or more and less than 20 is denoted as A)
CCC[C@H]1C(=O)N[C@@H]([C@@H](C)CC)C(=O)N2CCC[C@H]2C(=O)N(C)[C@H]2C/C=C\CCN(C2=O)[C@@H](Cc2ccc(C(F)F)cc2)C(=O)N(C)CC(=O)N[C@@H](CCc2ccc(Cl)c(Cl)c2)C(=O)N2C[C@H](OC3CCC3)C[C@H]2C(=O)NC2(CC(C)(C)C2)C(=O)N(C)[C@@H](C(CC)CC)C(=O)N(C)[C@H](C(=O)N(C)C)CC(=O)N1C [PP2646],NRAS/KRAS (ratio of KD value with respect to GDP-bound NRAS wild-type protein to KD value with respect to KRAS),[1]; class symbols,AA (a compound having 20 or more is denoted as AA)
same,HRAS/KRAS (ratio of KD value with respect to GDP-bound HRAS wild-type protein to KD value with respect to KRAS),[2]; class symbols,A (a compound having 10 or more and less than 20 is denoted as A)
CCO[C@@H]1C[C@H]2C(=O)NC3(CC(C)(C)C3)C(=O)N(C)[C@@H](C3CCCC3)C(=O)N(C)[C@H](C(=O)N(C)CC)CC(=O)N(C)[C@H]3CC/C=C/c4ccc(cc4)C[C@@H](C(=O)N(C)CC(=O)N[C@@H](CCc4ccc(Cl)c(Cl)c4)C(=O)N2C1)N1CC/C=C\C[C@@H](C1=O)N(C)C(=O)CN(C1CC1)C(=O)[C@H]([C@@H](C)CC)NC3=O [PP2598],NRAS/KRAS (ratio of KD value with respect to GDP-bound NRAS wild-type protein to KD value with respect to KRAS),[1]; class symbols,A (a compound having 10 or more and less than 20 is denoted as A)
same,HRAS/KRAS (ratio of KD value with respect to GDP-bound HRAS wild-type protein to KD value with respect to KRAS),[2]; class symbols,A (a compound having 10 or more and less than 20 is denoted as A)
CC[C@H](C)[C@@H]1NC(=O)[C@H](CC2CC2)N(C)C(=O)C[C@@H](C(=O)N(C)C)N(C)C(=O)[C@H](C2CCCC2)N(C)C(=O)C2(CCC2)N(C)C(=O)[C@@H]2C[C@@H](C)CN2C(=O)[C@H](CCc2cc(F)c(C(F)(F)F)c(F)c2)NC(=O)CN(C)C(=O)[C@H](Cc2ccc(C)cc2)N2CC/C=C\C[C@@H](C2=O)N(C)C(=O)[C@@H]2CCCN2C1=O [PP1801],NRAS/KRAS (ratio of KD value for NRAS to KD value for KRAS),[1]; [4],A (a compound having 10 or more and less than 20 is denoted as A)
same,HRAS/KRAS (ratio of KD value for HRAS to KD value for KRAS),[2]; [5],B (a compound having 3 or more and less than 10 is denoted as B)
CC[C@H](C)[C@@H]1NC(=O)[C@H](C)N(C)C(=O)C[C@@H](C(=O)N(C)C)N(C)C(=O)[C@H](C2CCCC2)N(C)C(=O)C2(CCC2)NC(=O)[C@@H]2CC(F)(F)CN2C(=O)[C@H](CCc2cc(F)c(C(F)(F)F)c(F)c2)NC(=O)CN(C)C(=O)[C@H](Cc2ccc(C(F)(F)F)cc2)N2CCCCC[C@@H](C2=O)N(C)C(=O)CN(C)C1=O [PP0473],NRAS/KRAS (ratio of KD value with respect to GDP-bound NRAS wild-type protein to KD value with respect to KRAS),[1]; SPR,C (A compound having a KD ratio of 0.1 or more and less than 3 is denoted as C)
same,HRAS/KRAS (ratio of KD value with respect to GDP-bound HRAS wild-type protein to KD value with respect to KRAS),[2]; SPR,C (A compound having a KD ratio of 0.1 or more and less than 3 is denoted as C)
CCCN1C(=O)CN(C)C(=O)CN(CC)C(=O)[C@H]([C@@H](C)CC)NC(=O)[C@H](CC(C)C)N(C)C(=O)C[C@@H](C(=O)N(C)C)NC(=O)[C@H](C2CCCC2)N(C)C(=O)C2(CCCC2)NC(=O)[C@@H]2C[C@@H](OCC)CN2C(=O)[C@H](CCc2ccc(C(F)(F)F)c(Cl)c2)NC(=O)CN(C)C(=O)[C@@H]1Cc1ccc(C(F)(F)F)cc1 [PP0371] ([NMeL]I[NEtG][Sar][NPrPhe(4-CF3)][Sar][hPhe(3-Cl-4-CF3)][Hyp](Et)[Ac5c][NMeGly(cPent)]D-NMe2; lactam N-11),NRAS/KRAS (ratio of KD for GDP-bound NRAS wild-type to KD for KRAS),[1]; SPR,B (a compound having 3 or more and less than 10 is denoted as B)
same,HRAS/KRAS (ratio of KD for GDP-bound HRAS wild-type to KD for KRAS),[2]; SPR,C (A compound having a KD ratio of 0.1 or more and less than 3 is denoted as C)
CCC[C@H]1C(=O)N[C@@H]([C@@H](C)CC)C(=O)N2CCC[C@H]2C(=O)N(C)[C@H]2C/C=C\CCN(C2=O)[C@@H](Cc2ccc(C(F)(F)F)cc2)C(=O)N(C)CC(=O)N[C@@H](CCc2cc(F)c(C(F)(F)F)c(F)c2)C(=O)N2C[C@H](OCC)C[C@H]2C(=O)N(C)C2(CCC2)C(=O)N(C)[C@@H](C2CCCC2)C(=O)N(C)[C@H](C(=O)N2CCCC2)CC(=O)N1C [PP3116],NRAS/KRAS (ratio of KD value with respect to GDP-bound NRAS wild-type protein to KD value with respect to KRAS),[1]; [3],A (a compound having 10 or more and less than 20 is denoted as A)
same,HRAS/KRAS (ratio of KD value with respect to GDP-bound HRAS wild-type protein to KD value with respect to KRAS),[2]; [3],A (a compound having 10 or more and less than 20 is denoted as A)
CCOC[C@H]1C(=O)N[C@@H]([C@@H](C)CC)C(=O)N(C)CC(=O)N(C)[C@H]2C/C=C\CCN(C2=O)[C@@H](Cc2ccc(C)cc2)C(=O)N(C)CC(=O)N[C@@H](CCc2ccc(C(F)(F)F)c(Cl)c2)C(=O)N2C[C@H](OCC)C[C@H]2C(=O)NC2(CC(C)(C)C2)C(=O)N(C)[C@@H](C2CCCC2)C(=O)N(C)[C@H](C(=O)N(C)CC)CC(=O)N1C [PP2401],NRAS/KRAS (ratio of KD value with respect to NRAS to KD value with respect to KRAS),[1]; [6],A (a compound having 10 or more and less than 20 is denoted as A)
same,HRAS/KRAS (ratio of KD value with respect to HRAS to KD value with respect to KRAS),[2]; [7],A (a compound having 10 or more and less than 20 is denoted as A)
